Values quoted from earlier work in patent US20100183687A1, “PROCESS FOR PREPARING PARTICLES OF OPIOIDS AND COMPOSITIONS PRODUCED THEREBY” (priority 2009, published 2010).

Settings: water

**Q.** With COc1ccc2c3c1O[C@H]1C(=O)CC[C@@]4(O)[C@@H](C2)N(C)CC[C@]314.Cl [oxycodone hydrochloride] as the molecule, how does the “solubility at neutral pH” value read?
**A.** The value was 100 mg/ml.
